In article PMC8159352, “Differentiating Aβ40 and Aβ42 in amyloid plaques with a small molecule fluorescence probe” (Chemical Science, 2020):

Tests used:
[1] = biological target: T1, Aβ40 (amyloid beta 40) fibrils (Homo sapiens, UniProt P05067); experiment: fluorescence titration of […] probe with fibrils; type: binding
T1 construct: gene APP; Aβ40 fibrils

[2] = biological target: T2, Aβ42 (amyloid beta 42) fibrils (Homo sapiens, UniProt P05067); experiment: fluorescence titration of […] probe with fibrils; type: binding
T2 construct: gene APP; Aβ42 fibrils
T2 sequence (P05067 672-713 limits assumed): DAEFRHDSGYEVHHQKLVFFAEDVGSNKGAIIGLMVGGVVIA

T1 sequence (P05067 672-711 limits assumed): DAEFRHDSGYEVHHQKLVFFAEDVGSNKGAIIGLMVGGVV

Kd [1]: 6.27 µM
Kd [2]: 3.78 µM
SMILES: CN(C)c1ccc(-c2ccc3cc(-c4nc5ccccc5s4)c(=N)oc3c2)cc1 [ICTAD-1]
